Results from patent publication US6689754B1, “Heterocyclic glycyl β-alanine derivatives” (G. D. Searle & Co., priority 1998, dated 2004).

Key:
[1] = target: T1, Human fibrinogen receptor IIb/IIIa (Homo sapiens, UniProt P05106+P08514); assay: Purified IIb/IIIa receptor assay: solid phase receptor assay, competition with biotinylated vitronectin; assay type: binding; details: 1 nM biotinylated vitronectin
T1 construct: Human fibrinogen receptor ([…]) was purified from outdated platelets; from tissue; host or cells: outdated human platelets
From the text: Purified IIb/IIIa Receptor Assay
Human fibrinogen receptor ([…]) was purified from outdated platelets. (Pytela, R., Pierschbacher, M. D., Argraves, S., Suzuki, S., and Rouslahti, E. “Arginine-Glycine-Aspartic acid adhesion receptors”, Methods in Enzymology 144(1987):475-489.) Human vitronectin was purified from fresh frozen plasma as described in Yatohgo, T., Izumi, M., Kashiwagi, H., and Hayashi, M., “Novel purification of vitronectin from human plasma by heparin affinity chromatography,” Cell Structure and Function 13(1988):281-292. Biotinylated human vitronectin was prepared by coupling NHS-biotin from Pierce Chemical Company (Rockford, Ill.) to purified vitronectin as previously described. (Charo, I. F., Nannizzi, L., Phillips, D. R., Hsu, M. A., Scarborough, R. M., “Inhibition of fibrinogen binding to GP IIb/IIIa by a GP IIIa peptide”, J. Biol. Chem. 266(3)(1991): 1415-1421.) Assay buffer, OPD substrate tablets, and RIA grade BSA were obtained from Sigma (St. Louis, Mo.). Anti-biotin antibody was obtained from Calbiochem (La Jolla, Calif.). Linbro microtiter plates were obtained from Flow Labs (McLean, Vs.). ADP reagent was obtained from Sigma (St. Louis, Mo.).
This assay is essentially the same reported in Niiya, K., Hodson, E., Bader, R., Byers-Ward, V. Koziol, J. A., Plow, E. F. and Ruggeri, Z. M., “Increased surface expression of the membrane glycoprotein IIb/IIIa complex induced by platelet activation: Relationships to the binding of fibrinogen and platelet aggregation”, Blood 70(1987):475-483. The purified human fibrinogen receptor ([…]) was diluted from stock solutions to 1.0 μg/mL in Tris-buffered saline containing 1.0 mM Ca^++, Mg^++, and Mn^++, pH 7.4 (TBS^+++). The diluted receptor was immediately transferred to Linbro microtiter plates at 100 μL/well (100 ng receptor/well). The plates were sealed and incubated overnight at 4° C. to allow the receptor to bind to the wells. All remaining Steps were at room temperature. The assay plates were emptied and 200 μL of 1% RIA grade BSA in TBS^+++ (TBS^+++/BSA) were added to block exposed plastic surfaces. Following a 2 hour incubation, the assay plates were washed with TBS^+++ using a 96 well plate washer. Logarithmic serial dilution of the test compound and controls were made starting at a stock concentration of 2 mM and using 2 nM biotinylated vitronectin in TBS^+++/BSA as the diluent. This premixing of labeled ligand with test (or control) ligand, and subsequent transfer of 50 μL aliquots to the assay plate was carried out with a CETUS Propette robot; the final concentration of the labeled ligand was 1 nM and the highest concentration of test compound was 1.0×10^−4 M. The competition occurred for two hours after which all wells were washed with a plate washer as before. Affinity purified horseradish peroxidase labeled goat anti-biotin antibody was diluted 1:3000 in TBS^+++/BSA and 125 μL were added to each well. After 30 minutes, the plates were washed and incubated with […] substrate in 100 mM/L citrate buffer, pH 5.0. The plate was read with a microtiter plate reader at a wavelength of 450 nm and when the maximum-binding control wells reached an absorbance of about 1.0, the final A450 were recorded for analysis. The data were analyzed using a macro written for use with the EXCELJ spreadsheet program. The mean, standard deviation, and % CV were determined for duplicate concentrations. The mean A450 values were normalized to the mean of four maximum-binding controls (no competitor added)(B-MAX). The normalized values were subjected to a four parameter curve fit algorithm, [Robard et al., Int. Atomic Energy Agency.

[2] = target: T2, Human vitronectin receptor (αvβ3) (Homo sapiens, UniProt P05106+P06756); assay: Vitronectin adhesion assay: solid phase receptor assay, competition with biotinylated vitronectin; assay type: binding; details: purified human vitronectin receptor; 1 nM biotinylated vitronectin
T2 construct: Human vitronectin receptor (αvβ3) was purified from human placenta; from tissue; host or cells: human placenta
Procedure: Vitronectin Adhesion Assay
Human vitronectin receptor (αvβ3) was purified from human placenta as previously described [Pytela et al., Methods in Enzymology, 144:475-489 (1987)]. Human vitronectin was purified from fresh frozen plasma as previously described [Yatohgo et al., Cell Structure and Function, 13:281-292 (1988)]. Biotinylated human vitronectin was prepared by coupling NHS-biotin from Pierce Chemical Company (Rockford, Ill.) to purified vitronectin as previously described [Charo et al., J. Biol. Chem., 266(3):1415-1421 (1991)]. Assay buffer, OPD substrate tablets, and RIA grade BSA were obtained from Sigma (St. Louis, Mo.). Anti-biotin antibody was obtained from Calbiochem (La Jolla, Calif.). Linbro microtiter plates were obtained from Flow Labs (McLean, Va.). ADP reagent was obtained from Sigma (St. Louis, Mo.).
This assay was essentially the same as previously reported [Niiya et al., Blood, 70:475-483 (1987)]. The purified human vitronectin receptor (αvβ3) was diluted from stock solutions to 1.0 μg/mL in Tris-buffered saline containing 1.0 mM Ca^++, Mg^++, and Mn^++, pH 7.4 (TBS^+++). The diluted receptor was immediately transferred to Linbro microtiter plates at 100 μL/well (100 ng receptor/well). The plates were sealed and incubated overnight at 4° C. to allow the receptor to bind to the wells. All remaining steps were at room temperature. The assay plates were emptied and 200 μL of 1% RIA grade BSA in TBS^+++ (TBS^+++/BSA) were added to block exposed plastic surfaces. Following a 2 hour incubation, the assay plates were washed with TBS^+++ using a 96 well plate washer. Logarithmic serial dilution of the test compound and controls were made starting at a stock concentration of 2 mM and using 2 nM biotinylated vitronectin in TBS^+++/BSA as the diluent. This premixing of labeled ligand with test (or control) ligand, and subsequent transfer of 50 μL aliquots to the assay plate was carried out with a CETUS Propette robot; the final concentration of the labeled ligand was 1 nM and the highest concentration of test compound was 1.0×10^−4 M. The competition occurred for two hours after which all wells were washed with a plate washer as before. Affinity purified horseradish peroxidase labeled goat anti-biotin antibody was diluted 1:3000 in TBS^+++/BSA and 125 μL were added to each well. After 30 minutes, the plates were washed and incubated with OPD/H2O2 substrate in 100 mM/L Citrate buffer, pH 5.0. The plate was read with a microtiter plate reader at a wavelength of 450 nm and when the maximum-binding control wells reached an absorbance of about 1.0, the final A450 were recorded for analysis. The data were analyzed using a macro written for use with the EXCELJ spreadsheet program. The mean, standard deviation, and % CV were determined for duplicate concentrations. The mean A450 values were normalized to the mean of four maximum-binding controls (no competitor added)(B-MAX). The normalized values were subjected to a four parameter curve fit algorithm [Rodbard et al., Int.

**Q.** Which results are given for `O=C(O)C[C@@H](NC(=O)CNC(=O)c1c[nH]c(=O)c(NC2=NCC(O)CN2)c1)c1cc(Cl)cc(Cl)c1O` (some centres unmarked) [Example 41]?
**A.** IC50 [1]: 35.4 µM; IC50 [2]: 10.2 nM
